Test results as given in patent publication US20240208984A1, “BIVALENT LIGANDS TO UNDERSTAND DIMERIZATION OF THE MU OPIOID RECEPTOR AND THE CHEMOKINE RECEPTOR CCR5 IN NEUROLOGICAL DISORDERS” (priority 2021, published 2024).

Molecular target: CCR5 (Homo sapiens (Human), UniProt P51681)
Test: Calcium mobilization assay in HOS-CCR5 cells
Assay type: cell-based
Experimental: We then conducted the calcium mobilization assay to further test both the agonist and antagonist properties of the newly synthesized compounds in the HOS-CCR5 (stably transfected for the expression of CCR5) cells using our reported protocol, as calcium mobilization is associated with the activation of CCR5. Prior to the assay, the HOS-CCR5 cells were transiently transfected with a Gqi5 to boost calcium signaling levels.
In the antagonism assay, these compounds were assessed for their ability to inhibit CCL5-stimulated Ca^2+ mobilization.
HOS-CCR5 cells were transfected with Gqi5 pcDNA16 using Lipofectamine 2000 (Invitrogen) according to the manufacturer's recommended procedure and maintained in RPMI 1640 supplemented with 10% fetal bovine serum, 100 μg/mL penicillin, 100 μg/mL streptomycin, and 1 mg/mL G418 at 37° C. and 5% C02. 48 h after transfection, a total of 2,500,000 cells were spun down and brought back up in 8 mL of 50:1 HBSS: HEPES assay buffer. Cells were then plated at 25,000 cells per well into a clear bottom, black 96-well plate (Greiner Bio-one) and 50 μL of Fluo4 loading buffer [40 μL of 2 μM Fluo4-AM (Invitrogen), 100 μL of 2.5 mM probenecid, in 5 mL of assay buffer] was added to bring the volume up to 130 μL. After incubating for 45 min, 50 μL of varying concentrations of tested compounds were added and the plate was incubated for an additional 15 min. Plates were then read on a FlexStation3 microplate reader (Molecular Devices) at 494/516 ex/em for a total of 120 s. After 16 s of reading, 20 μL of 200 nM CCL5 (Biosource) in assay buffer, or assay buffer alone, was added to the wells to bring the total volume up to 200 μL. The changes in calcium mobilization were monitored and peak height values were obtained using SoftMaxPro software (Molecular Devices). Non-linear regression curves and IC50 values were generated using GraphPad Prism 8.0.1 (GraphPad Software, San Diego, CA). All experiments were repeated at least three times.

Chain of CCR5 (P51681 whole entry): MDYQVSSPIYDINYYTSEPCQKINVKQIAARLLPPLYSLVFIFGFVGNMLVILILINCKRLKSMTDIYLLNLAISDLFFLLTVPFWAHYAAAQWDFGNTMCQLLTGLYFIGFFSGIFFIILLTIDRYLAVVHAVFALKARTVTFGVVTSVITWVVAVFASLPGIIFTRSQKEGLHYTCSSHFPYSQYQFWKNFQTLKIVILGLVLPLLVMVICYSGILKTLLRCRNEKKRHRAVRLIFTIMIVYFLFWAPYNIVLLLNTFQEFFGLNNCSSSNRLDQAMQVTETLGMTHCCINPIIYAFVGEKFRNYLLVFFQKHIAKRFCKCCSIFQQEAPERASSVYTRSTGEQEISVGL

What does the source list for `CC(C)c1nnc(CCNC(=O)COCC(=O)NCCCCCCCNC(=O)COCC(=O)NC2CC[C@@]3(O)[C@H]4Cc5ccc(O)c6c5[C@@]3(CCN4CC3CC3)[C@H]2O6)n1C1CC2CCC(C1)N2CC[C@H](NC(=O)C1CCC(F)(F)CC1)c1ccccc1` (some centres unmarked) [VZMC013]?
IC50 (HOS-CCR5 transfected with Gqi5, mean ± SEM, read-out: Inhibition of CCL5-stimulated Intracellular Ca2+ Mobilization IC50): 57.5 nM; CCR5 activation (agonism) in Ca2+ mobilization (agonist mode, range of concentrations tested): none of these compounds appeared to activate CCR5
